{"source": "patent US20250066290A1", "about": "“DHODH INHIBITORS CONTAINING A CARBOXYLIC ACID BIOISOSTERE” (IMMUNIC AG, priority 2021, published 2025)", "key": {"[1]": {"settings": "pH 7.4"}, "Caco-2 monolayer": {"test_system": "Caco-2 monolayer", "assay": "A-B and B-A permeability (Caco-2, pH 7.4/7.4)", "format": "in vitro ADME, human", "settings": "Caco-2, pH 7.4", "from_the_text": "(§1) The Caco-2 cell line is a human colon adeno-carcinoma cell line that differentiates in culture and resembles the epithelial lining of the human small intestine. […]"}, "[2]": {"assay": "Partition coefficient log D (n-octanol/PBS at pH 7.4)", "format": "physicochemical", "settings": "pH 7.4", "procedure": "The total amount of compound was determined as the peak area of the principal peak in a calibration standard (100 μM) containing organic solvent (MeOH/water, 60/40 v/v). The amount of compound in buffer was determined as the combined, volume-corrected and weighted areas of the corresponding peaks in the aqueous phases of three organic-aqueous samples of different composition. An automated weighting system was used to ensure the preferred use of raw data from those samples with well quantifiable peak signals. The amount of compound in organic was calculated by subtraction.\nSubsequently, the partition coefficient (log D, n-octanol/PBS at pH 7.4) was calculated as the Log10 of the amount of compound in the organic phase divided by the amount of compound in the aqueous phase (Eurofins Discovery Services Item #417)."}, "[3]": {"target": "human URAT1 uptake transporter (Homo sapiens (Human), UniProt Q96S37)", "sequence (Q96S37 whole entry)": "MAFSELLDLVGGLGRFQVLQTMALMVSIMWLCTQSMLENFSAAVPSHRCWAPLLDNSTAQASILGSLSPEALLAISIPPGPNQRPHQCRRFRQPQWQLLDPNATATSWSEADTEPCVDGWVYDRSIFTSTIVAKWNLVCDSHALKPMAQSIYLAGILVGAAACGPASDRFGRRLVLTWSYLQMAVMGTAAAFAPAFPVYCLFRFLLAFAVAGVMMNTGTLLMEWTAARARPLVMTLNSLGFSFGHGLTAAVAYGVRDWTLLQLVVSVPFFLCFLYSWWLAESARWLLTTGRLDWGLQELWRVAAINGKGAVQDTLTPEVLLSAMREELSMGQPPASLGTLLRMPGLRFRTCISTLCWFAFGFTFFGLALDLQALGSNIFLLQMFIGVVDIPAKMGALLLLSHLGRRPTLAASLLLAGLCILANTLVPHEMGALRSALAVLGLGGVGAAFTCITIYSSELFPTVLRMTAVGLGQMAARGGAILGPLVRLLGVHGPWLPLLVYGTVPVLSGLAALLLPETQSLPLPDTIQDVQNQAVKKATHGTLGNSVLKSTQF", "assay": "Human URAT1 uptake transporter assay (MDCKII-URAT1-LV, SOLVO)", "format": "cell-based", "settings": "10 μM compound, 20 μM uric acid probe substrate", "procedure": "In the human URAT1 uptake transporter assay (host cell line: MDCKII), the accumulation of the probe substrate in the presence of a DHODH inhibitor (at a concentration of 10 μM) into cells was measured. The assay was executed at SOLVO with catalogue number MDCKII-URAT1-LV. 20 μM uric acid served as probe substrate. Reference inhibitor was benzbromarone at a concentration of 300 μM, which served as internal control."}, "SARS-CoV-2": {"test_system": "SARS-CoV-2", "assay": "SARS-CoV-2 viral replication (YFP) assay", "format": "cell-based", "settings": "Severe acute respiratory syndrome coronavirus 2, read-out: EC50 range"}, "human rhinovirus HRV-14": {"test_system": "human rhinovirus HRV-14", "assay": "Antiviral activity on human rhinovirus", "format": "cell-based", "settings": "Rhinovirus B, HRV14"}, "[4]": {"assay": "Cytotoxicity in human rhinovirus test"}, "[5]": {"assay": "A-B and B-A permeability (Caco-2, pH 7.4/7.4)", "format": "in vitro ADME, human", "settings": "human; for recovery at 10 μM: Caco-2, Caco-2, 10 μM", "from_the_text": "as §1"}, "[6]": {"assay": "Mouse pharmacokinetics, male and female, cassette dosing", "format": "in vivo, mice (C57BL/6J)", "settings": "for AUC / Cmax / half-life: C57BL/6J, mouse, in vivo; for AUC: 0 to 24 h; for Cmax: 5 mg/kg oral, 1 mg/kg intravenous cassette; for F: bioavailability", "procedure": "The pharmacokinetics of the compounds of the present invention was evaluated in 3 male and 3 female mice (C57BL/6J, 8 week old) after oral or intravenous cassette dosing to assess the oral bioavailability. Dose was 5 mg/kg (oral) and 1 mg/kg (intravenous), application volume was 5 mL/kg (oral) and 0.5 mL/kg (intravenous), vehicle was 5% solutol, 95% NaCl solution (at 0.9% saline concentration) for oral and 5% solutol, 5% ethanol, 90% NaCl solution (at 0.9% saline concentration) for intravenous. At each designated time point (0.5, 1, 2, 4, 8 and 24 h after dosing), 20 μL whole blood were collected from the tail vein into Li-heparin tubes, frozen on dry ice within 1-2 minutes of sampling and stored at −20° C. until processed for LC-MS analysis."}, "[7]": {"assay": "Metabolic stability in rat liver microsomes", "settings": "SD", "from_the_text": "(§2) The metabolism was monitored by HPLC-MS/MS. Verapamil served as positive control."}, "[8]": {"assay": "Metabolic stability in human liver microsomes", "from_the_text": "as §2"}, "RSV-Long": {"test_system": "RSV-Long", "assay": "Antiviral activity on RSV-Long in Hep-2 cells", "format": "cell-based", "settings": "human respiratory syncytial virus, 48 h, two days after infection", "from_the_text": "(§3) The following results were obtained:"}, "[9]": {"test_system": "SARS-CoV-2 reporter virus d6-YFP (WT)", "assay": "microbe, parasite or virus in culture", "format": "cell-based", "settings": "Severe acute respiratory syndrome coronavirus 2, Caco-2"}, "RSV-A2": {"test_system": "RSV-A2", "assay": "Antiviral activity on RSV-A2 in Hep-2 cells", "settings": "human respiratory syncytial virus, HEp-2, 48 h, read-out: RSV-A2 IC50"}, "in vitro [10]": {"assay": "in vitro", "format": "cell-based", "settings": "human", "from_the_text": "as §3"}, "[11]": {"assay": "Mouse pharmacokinetics, female, deuteration matched pair analysis", "format": "in vivo, mice (C57BL/6J)", "procedure": "In another matched pair analysis the benefit of deuteration of the N-methoxyacetamide moiety was tested: the pharmacokinetic properties of the compounds were evaluated in 3 female mice (C57BL/6J, 8 week old) after oral or intravenous cassette dosing to assess the oral bioavailability. Dose was 5 mg/kg (oral) and 1 mg/kg (intravenous), application volume was 5 mL/kg (oral) and 2 mL/kg (intravenous), vehicle was 5% solutol, 95% NaCl solution (at 0.9% saline concentration) for oral and 5% solutol, 5% ethanol, 90% NaCl solution (at 0.9% saline concentration) for intravenous application. At each designated time point (0.25, 0.5, 1, 2, 4 and 8 h after dosing for oral; 0.083, 0.25, 0.5, 1, 4 and 8 h after dosing for intravenous), 20 μL whole blood were collected from the tail vein into Li-heparin tubes, frozen on dry ice within 1-2 minutes of sampling and stored at −20° C. until processed for LC-MS analysis."}, "[12]": {"target": "N-terminally truncated recombinant hDHODH enzyme (Homo sapiens, UniProt Q02127)", "sequence (Q02127 whole entry, looked up, the tested form may be a part)": "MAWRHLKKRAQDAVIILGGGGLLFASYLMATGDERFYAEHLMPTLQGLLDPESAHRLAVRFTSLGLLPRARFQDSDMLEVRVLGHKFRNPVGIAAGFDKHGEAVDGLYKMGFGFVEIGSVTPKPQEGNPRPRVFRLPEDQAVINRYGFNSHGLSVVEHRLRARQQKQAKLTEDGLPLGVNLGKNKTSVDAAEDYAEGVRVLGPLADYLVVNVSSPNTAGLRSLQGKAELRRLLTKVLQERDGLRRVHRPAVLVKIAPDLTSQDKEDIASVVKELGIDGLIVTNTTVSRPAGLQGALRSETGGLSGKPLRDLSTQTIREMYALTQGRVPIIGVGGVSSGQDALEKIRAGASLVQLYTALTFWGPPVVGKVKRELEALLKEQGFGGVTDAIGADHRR", "assay": "biochemical", "format": "biochemical", "settings": "human DHODH assay; read-out: IC50 range", "summary_of_the_method": "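DCIP reduction followed at 600 nm for 2 min, with 60 μM 2,6-dichloroindophenol, 50 μM decylubiquinone and 100 μM dihydroorotate (reaction started with dihydroorotate). Buffer 50 mM TrisHCl, 150 mM KCl, 0.1% Triton X-100, pH 8.0, 30° C. IC50 from at least six compound concentrations.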"}, "RSV-B": {"test_system": "RSV-B", "assay": "Antiviral activity on RSV-B in Hep-2 cells", "format": "cell-based", "settings": "human respiratory syncytial virus, 48 h, two days after infection", "from_the_text": "as §3"}, "in vitro [13]": {"assay": "in vitro"}}, "note": "Like-named read-outs stand apart in the source and are kept apart here."}
{"smiles": "[2H]C([2H])([2H])Oc1cccc(-c2cc(F)c(NC(=O)C3=C(C(=O)NOC)CCC3)c(F)c2)c1", "note": "[Comparative Example C1, reference compound]", "values": [{"measurement": "solubility", "setting": "[1]", "value": 220, "unit": "µM"}, {"measurement": "A-B permeability", "setting": "Caco-2 monolayer", "value": 0.068, "unit": "×10⁻⁶ cm/s"}, {"measurement": "B-A permeability", "setting": "Caco-2 monolayer", "value": 0.88, "unit": "×10⁻⁶ cm/s"}, {"measurement": "logD", "setting": "[2]", "value": 1.0}, {"measurement": "human URAT1 uptake transporter stimulation @ 10 μM", "setting": "[3]", "value": 173, "unit": "%"}]}
{"smiles": "[2H]C([2H])([2H])Oc1cccc(-c2cc(F)c(NC(=O)C3=C(C(=O)NOC)CCC3)c(F)c2)c1", "note": "[Example 4]", "values": [{"measurement": "EC50", "setting": "SARS-CoV-2", "value": "< 10000", "unit": "nM"}, {"measurement": "EC50", "setting": "human rhinovirus HRV-14", "value": 2200, "unit": "nM"}, {"measurement": "CC50", "setting": "[4]", "value": "> 25000", "unit": "nM"}, {"measurement": "recovery at 10 μM", "setting": "[5]; A-B direction, read-out: recovery (A-B)", "value": 60, "unit": "%"}, {"measurement": "recovery at 10 μM", "setting": "[5]; B-A direction, read-out: recovery (B-A)", "value": 52, "unit": "%"}, {"measurement": "Papp A→B at 10 μM", "setting": "[5]; Caco-2, 10 μM, pH 7.4/7.4", "value": 1.6, "unit": "×10⁻⁶ cm/s"}, {"measurement": "Papp B→A at 10 μM", "setting": "[5]; Caco-2, 10 μM, pH 7.4/7.4", "value": 0.26, "unit": "×10⁻⁶ cm/s"}, {"measurement": "human URAT1 uptake transporter stimulation @ 10 μM", "setting": "[3]", "value": 26, "unit": "%"}, {"measurement": "AUC", "setting": "[6]; female mice", "value": 1210, "unit": "ng·h/mL"}, {"measurement": "Cmax", "setting": "[6]; female mice", "value": 690, "unit": "ng/mL"}, {"measurement": "AUC", "setting": "[6]; male mice", "value": 1780, "unit": "ng·h/mL"}, {"measurement": "Cmax", "setting": "[6]; male mice", "value": 1110, "unit": "ng/mL"}, {"measurement": "F", "setting": "[6]; female mice", "value": "♀ 87%"}, {"measurement": "half-life", "setting": "[6]; female", "value": 1.3, "unit": "h"}, {"measurement": "F", "setting": "[6]; male mice", "value": "♂ 63%"}, {"measurement": "half-life", "setting": "[6]; male", "value": 1.1, "unit": "h"}]}
{"smiles": "[2H]C([2H])([2H])Oc1cccc(-c2cc(F)c(NC(=O)c3ccsc3C(=O)NOC)c(F)c2)c1", "note": "[Example 9, N3-(3,5-Difluoro-3′-(methoxy-d3)-[1,1′-biphenyl]-4-yl)-N2-methoxythiophene-2,3-di-carboxamide]", "values": [{"measurement": "microsomal CLint", "setting": "[7]; female", "value": 63.8, "unit": "µL/min/mg"}, {"measurement": "microsomal CLint", "setting": "[7]; male", "value": 183, "unit": "µL/min/mg"}, {"measurement": "EC50", "setting": "SARS-CoV-2", "value": "< 1000", "unit": "nM"}, {"measurement": "microsomal CLint", "setting": "[8]; female", "value": 55.5, "unit": "µL/min/mg"}, {"measurement": "microsomal CLint", "setting": "[8]; male", "value": 76.5, "unit": "µL/min/mg"}, {"measurement": "IC50", "setting": "RSV-Long", "value": "< 100", "unit": "nM"}, {"measurement": "EC50", "setting": "human rhinovirus HRV-14; HRV-14, read-out: EC50", "value": 14, "unit": "nM"}, {"measurement": "CC50", "setting": "[4]", "value": "> 25000", "unit": "nM"}, {"measurement": "EC50", "setting": "[9]", "value": 72, "unit": "nM"}, {"measurement": "IC50", "setting": "RSV-A2", "value": "< 100", "unit": "nM"}, {"measurement": "CC50 at 2 days", "setting": "in vitro [10]", "value": 45300, "unit": "nM"}, {"measurement": "AUC(0-t)", "setting": "[11]; C57BL/6J, mouse, in vivo, female mice, 0 to 8 h", "value": 12300, "unit": "ng·h/mL"}, {"measurement": "Cmax", "setting": "[11]; C57BL/6J, mouse, in vivo, female mice, 5 mg/kg oral, 1 mg/kg intravenous cassette", "value": 3000, "unit": "ng/mL"}, {"measurement": "F", "setting": "[11]; female mice, bioavailability", "value": 49, "unit": "%"}, {"measurement": "half-life", "setting": "[11]; female, C57BL/6J, mouse, in vivo", "value": 2.6, "unit": "h"}, {"measurement": "IC50", "setting": "[12]", "value": "< 100", "unit": "nM"}, {"measurement": "IC50", "setting": "RSV-B", "value": "< 100", "unit": "nM"}]}
{"smiles": "CCOC(=O)c1ccc(OCCC2CCN(c3ccc(C)nn3)CC2)cc1", "note": "[pirodavir]", "values": [{"measurement": "EC50", "setting": "human rhinovirus HRV-14; HRV-14, read-out: EC50", "value": 0.3, "unit": "nM"}, {"measurement": "CC50", "setting": "in vitro [13]", "value": 4500, "unit": "nM"}]}
